Consider 17 compounds from patent US20240262842A1, “SMALL MOLECULE INHIBITORS OF KRAS G12C MUTANT” (Merck Sharp & Dohme LLC, priority 2021, published 2024).

The target of the assay is biotinylated KRAS G12C protein (GMP-PNP loaded) and GST-tagged Ras binding domain of c-RAF (Homo sapiens, UniProt P01116, C118S/C51S/C80L/G12C). Put plainly: RAS:RAF-RBD binding assay (TR-FRET). To be noted: 30-minute incubation of compound with KRAS G12C before RAF-RBD; Table 4; read-out: IC50.
The term IC50 denotes the concentration that inhibits the measured activity by half. With `COCc1nc2c3c(c(OC)cc2n1C)-c1cccn2c(C(=O)c4cc(F)c(NC(=O)/C=C/CN5CC6(CCCOC6)C5)c(F)c4)cc(c12)CCN3C` (single isomer, unassigned) [Example 292, mono((E)-2-(4-((2,6-difluoro-4-(7-methoxy-10-(methoxymethyl)-9,12-dimethyl-9,12,13,14-tetra-hydroimidazo[4″,5″: 5′,6′]benzo[1′,2′:2,3]azo-cino[4,5,6-hi]indolizin-11-ium-2-carbonyl)phenyl)-amino)-4-oxobut-2-en-1-yl)-6-oxa-2-azaspiro[3.5]-nonan-2-ium) mono(2,2,2-trifluoroacetate)], the IC50 was determined as 84.9 nM.

In the case of `COCc1nc2c3c(c(OC)cc2n1C)-c1cccn2c(C(=O)c4cc(F)c(NC(=O)/C=C/CNC5CC6(COC6)C5)c(F)c4)cc(c12)CCN3C` [Example 291, (E)-4-((2-oxaspiro[3.3]-heptan-6-yl)amino)-N-(2,6-difluoro-4-(7-meth-oxy-10-(methoxymethyl)-9,12-dimethyl-9,12,13,14-tetrahydroimidazo[4″,5″: 5′,6′]benzo[1′,2′:2,3]-azocino[4,5,6-hi]indol-izine-2-carbonyl)phenyl) but-2-enamide], the IC50 is 5.55 nM.

For `COCc1nc2c3c(c(OC)cc2n1C)-c1cccn2c(C(=O)c4cc(F)c(NC(=O)/C=C/CNC(C)(C)C)c(F)c4)cc(c12)CCN3C` [Example 288, mono((E)-2-(4-(4-(tert-butylammonio)but-2-enamido)-3,5-difluoro-benzoyl)-7-methoxy-10-(methoxymethyl)-9,12-dimethyl-9,12,13,14-tetra-hydroimidazo[4″,5″:5′,6′]-benzo[1′,2′:2,3]azocino-[4,5,6-hi]indolizin-11-ium) mono-(2,2,2-trifluoroacetate)], the IC50 was 8.15 nM.

As to “(Z)-N-(4-((4-(9,10-dimeth- yl-7-(trifluoromethyl)- 13,14-dihydro-9H-imid- azo[4″,5″:5′6′]benzo- [1′,2′:2,3]oxocino[4,5,6- hi]indolizine-2-carbonyl)- 2,6-difluorophenyl)amino)- 3-fluoro-4-oxobut-2-en-1- yl)-1-methylcyclopropan- 1-aminium2,2,2-trifluoro- acetate [Example 261]”, the IC50 is 22.2 nM.

On to `Cc1nc2c3c(c(C(F)(F)F)cc2n1C)-c1cccn2c(C(=O)c4cc(F)c(NC(=O)/C(F)=C/CNC5CC6(COC6)C5)c(F)c4)cc(c12)CCO3` [Example 297, (Z)-4-((2-oxaspiro[3.3]-heptan-6-yl)amino)-N-(4-(9,10-dimethyl-7-(trifluoromethyl)-13,14-dihydro-9H-imidazo-[4″,5″:5′,6′]benzo[1′,2′: 2,3]oxocino[4,5,6-hi]-indolizine-2-carbonyl)-2,6-difluorophenyl)-2-fluorobut-2-enamide], for which the 50% inhibitory concentration (IC50) worked out at 26.7 nM.

Take `Cc1nc2c3c(c(C(F)(F)F)cc2n1C)-c1cccn2c(C(=O)c4cc(F)c(NC(=O)C=CCN5CCC5CC(=O)N(C)C)c(F)c4)cc(c12)CCO3` [Example 254, mono(2-(4-((E)-4-((2S)-2-(2-(dimethylamino)-2-oxoethyl)azetidin-1-ium-1-yl)but-2-enamido)-3,5-difluorobenzoyl)-9,10-dimethyl-7-(trifluorometh-yl)-13,14-dihydro-9H-imidazo[4″,5″:5′,6′]benzo-[1′,2′:2,3]oxocino[4,5,6-hi]indolizin-11-ium) mono(2,2,2-trifluoro-acetate)]: the IC50 is 20.9 nM.

With `Cc1nc2c3c(c(C(F)(F)F)cc2n1C)-c1cccn2c(C(=O)c4cc(F)c(NC(=O)/C=C/C5CCCN5)c(F)c4)cc(c12)CCO3` (single isomer, unassigned) [Example 251, (E)-N-(4-(9,10-dimethyl-7-(trifluoromethyl)-13,14-dihydro-9H-imidazo-[4″,5″:5′,6′]benzo[1′,2′: 2,3]oxocino[4,5,6-hi]-indolizine-2-carbonyl)-2,6-difluorophenyl)-3-(pyrrolidin-2-yl)acryl-amide], the IC50 was determined as 16.7 nM.

On to `Cc1nc2c3c(c(C(F)(F)F)cc2n1C)-c1cccn2c(C(=O)c4cc(F)c(NC(=O)C=CCN5CC6CC5CO6)c(F)c4)cc(c12)CCO3` [Example 257, mono(2-(4-((E)-4-((1S,4S)-2-oxa-5-aza-bicyclo-[2.2.1]heptan-5-ium-5-yl)but-2-enamido)-3,5-difluorobenzoyl)-9,10-dimethyl-7-(trifluorometh-yl)-13,14-dihydro-9H-imidazo[4″,5″:5′,6′]benzo-[1′,2′:2,3]oxocino[4,5,6-hi]indolizin-11-ium) mono(2,2,2-trifluoro-acetate)], for which the IC50 is 9.69 nM.

For the compound `Cc1nc2c3c(c(C(F)(F)F)cc2n1C)-c1cccn2c(C(=O)c4cc(F)c(NC(=O)/C=C/C5CCCN5)c(F)c4)cc(c12)CCO3` (single isomer, unassigned) [Example 250, (E)-N-(4-(9,10-dimethyl-7-(trifluoromethyl)-13,14-dihydro-9H-imidazo-[4″,5″:5′,6′]benzo[1′,2′: 2,3]oxocino[4,5,6-hi]-dolizine-2-carbonyl)-2,6-difluorophenyl)-3-(pyrrol-idin-2-yl)acrylamide], the IC50 came to 54.9 nM.

For the compound `Cc1nc2c3c(c(C(F)(F)F)cc2n1C)-c1cccn2c(C(=O)c4cc(F)c(NC(=O)/C=C/CNC5(C)COC5)c(F)c4)cc(c12)CC(C)O3` (single isomer, unassigned) [Example 273, mono((E)-2-(3,5-difluoro-4-(4-((3-methyloxetan-3-yl)ammonio)but-2-en-amido)benzoyl)-9,10,13-trimethyl-7-(trifluorometh-yl)-13,14-dihydro-9H-imidazo[4″,5″:5′,6′]benzo-[1′,2′:2,3]oxocino[4,5,6-hi]indolizin-11-ium) mono(2,2,2-trifluoro-acetate)], the IC50 came to 30.1 nM.

Regarding `Cc1nc2c3c(c(C(F)(F)F)cc2n1C)-c1cccn2c(C(=O)c4cc(F)c(NC(=O)/C=C/CNC5CC(F)(F)C5)c(F)c4)cc(c12)CCO3` [Example 277, (E)-N-(4-((4-(9,10-dimethyl-7-(trifluoro-methyl)-13,14-dihydro-9H-imidazo[4″,5″:5′,6′]-benzo[1′,2′:2,3]oxocino-[4,5,6-hi]indolizine-2-carbonyl)-2,6-difluoro-phenyl)amino)-4-oxobut-2-en-1-yl)-3,3-difluoro-cyclobutan-1-aminium 2,2,2-trifluoroacetate], the IC50 came out at 26.4 nM.

Take `Cc1nc2c3c(c(C(F)(F)F)cc2n1C)-c1cccn2c(C(=O)c4cc(F)c(NC(=O)C=CCN5CCCC5C5(O)CC5)c(F)c4)cc(c12)CCO3` (centres unmarked) [Example 255, mono(2-(3,5-difluoro-4-((E)-4-((28)-2-(1-hydroxy-cyclopropyl)pyrrolidin-1-ium-1-yl)but-2-enamido)-benzoyl)-9,10-dimethyl-7-(trifluoromethyl)-13,14-dihydro-9H-imidazo-[4″,5″:5′,6′]benzo[1′,2′: 2,3]oxocino[4,5,6-hi]-indolizin-11-ium) mono-(2,2,2-trifluoroacetate)]: the IC50 was determined as 11.7 nM.

Consider `COCc1nc2c3c(c(OC)cc2n1C)-c1cccn2c(C(=O)c4cc(F)c(NC(=O)/C=C/CNC(C)(C)C5CC5)c(F)c4)cc(c12)CCN3C` [Example 290, mono((E)-2-(4-(4-((2-cyclopropylpropan-2-yl)-ammonio)but-2-enamido)-3,5-difluorobenzoyl)-7-methoxy-10-(methoxy-methyl)-9,12-dimethyl-9,12,13,14-tetrahydro-imidazo[4″,5″:5′,6′]benzo-[1′,2′:2,3]azocino[4,5,6-hi]indolizin-11-ium) mono(2,2,2-trifluoro-acetate)], for which the IC50 was 11.1 nM.

Take `Cc1nc2c3c(c(C(F)(F)F)cc2n1C)-c1cccn2c(C(=O)c4cc(F)c(NC(=O)/C(F)=C/CNCC5(CO)CC5)c(F)c4)cc(c12)CCO3` [Example 295, mono((Z)-2-(3,5-difluoro-4-(2-fluoro-4-(((1-(hydroxymethyl)cyclo-propyl)methyl)ammonio)-but-2-enamido)benzoyl)-9,10-dimethyl-7-(trifluoro-methyl)-13,14-dihydro-9H-imidazo[4″,5″:5′,6′]-benzo[1′,2′:2,3]oxocino-[4,5,6-hi]indolizin-11-ium) mono(2,2,2-trifluoro-acetate)]: the IC50 was 25.3 nM.

Take `COCc1nc2c3c(c(OC)cc2n1C)-c1cccn2c(C(=O)c4cc(F)c(NC(=O)/C(F)=C/CNC5(C)CC5)c(F)c4)cc(c12)CCN3C` [Example 286, (Z)-N-(2,6-difluoro-4-(7-methoxy-10-(methoxymethyl)-9,12-dimethyl-9,12,13,14-tetrahydroimidazo[4″,5″:5′,6′]benzo[1′,2′:2,3]azocino[4,5,6-hi]indolizine-2-carbonyl)phenyl)-2-fluoro-4-((1-methylcyclopropyl)amino)but-2-enamide]: the IC50 is 92.8 nM.

For `COCc1nc2c3c(c(OC)cc2n1C)-c1cccn2c(C(=O)c4cc(F)c(NC(=O)/C=C/CN5CC[C@H](O)C5)c(F)c4)cc(c12)CCN3C` [Example 289, mono(2-(3,5-difluoro-4-((E)-4-((3S)-3-hydroxy-pyrrolidin-1-ium-1-yl)but-2-enamido)benzoyl)-7-methoxy-10-(methoxy-methyl)-9,12-dimethyl-9,12,13,14-tetrahydro-imidazo[4″,5″:5′,6′]benzo-[1′,2′:2,3]azocino[4,5,6-hi]indolizin-11-ium) mono(2,2,2-trifluoro-acetate)], the IC50 amounted to 68.8 nM.

With `Cc1nc2c3c(c(C(F)(F)F)cc2n1C)-c1cccn2c(C(=O)c4cc(F)c(NC(=O)/C=C/CN5CCC[C@@]5(C)C(C)O)c(F)c4)cc(c12)CCO3` (single isomer, unassigned) [Example 258], the IC50 is 6.69 nM.
